Here are results for two compounds from patent publication US20200188473A1, “COMBINATION THERAPY FOR CANCER” (BETH ISRAEL DEACONESS MEDICAL CENTER, INC., priority 2017, published 2020).

Assay [1] concerns human VHL deficient RCC cell lines (A498). Conditions: A498 xenograft; treatment begun at 12 mm diameter; resistance = time to grow 2 mm beyond pretreatment size; sunitinib 30 mg/kg daily by gavage.
Protocol: A murine xenograft system to study resistance antiangiogenic agents was developed. To assess the effects of antiangiogenic therapy on the growth of human RCC xenografts, established human VHL deficient RCC cell lines (A498) were implanted subcutaneously (1×10^7 cells) into the flanks of 6-8 week old nude/beige mice. The tumors were measured in two axes and the largest axis was followed. Treatment with sunitinib or sorafenib was begun when the tumors reached a diameter of 12 mm (roughly 3 weeks after injection) and resistance to this treatment was monitored. Resistance was defined as the time required for a tumor to grow 2 mm beyond its pretreatment size. […] This model was used to study the mechanisms by which tumors escape angiogenesis inhibition.
The effect of sunitinib and Ang(1-7) on the growth of human RCC xenografts was tested. 1×10^7 cells were injected into the flanks of nude-beige mice. Established human VHL deficient RCC cell lines (A498) were implanted subcutaneously (1×10^7 cells) into the flanks of 6-8 week old nude/beige mice. The tumors were measured in two axes and the largest axis was followed. Treatment with sunitinib (30 mg/kg daily by gavage) and Ang(1-7) 1 mg/kg Ang(1-7) IP three times per week was begun when the tumors reached a diameter of 12 mm (roughly 3 weeks after injection). […]
Another assay deals with ACE2. The experiment in a line: transcriptome analysis of untreated vs resistant xenograft tumors. It is filed as in vivo, mice. As to conditions: for ACE2 down modulation in resistant tumors vs control untreated tumors: 786-0 model. The procedure:
Transcriptome analysis of the untreated tumors vs the resistant tumors was performed. ACE2 was the second most down-modulated gene common to the sorafenib and sunitinib treated 786-0 model with a 2.4 fold down modulation in the resistant tumors vs the control untreated tumors. Moreover, ACE2 was in the top 3 most down-modulated genes in the A498 tumor model with a 5-fold decrease i n resistant tumors vs untreated tumors (P<0.001).

With `CCN(CC)CCNC(=O)c1c(C)[nH]c(/C=C2\C(=O)Nc3ccc(F)cc32)c1C` [sunitinib], the “period of relative stabilization” value in assay [1] fell in the range of 10 to 12 days. In addition, in the assay on ACE2, the “ACE2 down modulation in resistant tumors vs control untreated tumors” value amounted to 2.4 fold. For the same compound, the ACE2 expression result in the assay with ACE2 (murine xenograft system, sunitinib treatment) is “loss of ACE2 expression”.

For the compound `CNC(=O)c1cc(Oc2ccc(NC(=O)Nc3ccc(Cl)c(C(F)(F)F)c3)cc2)ccn1` [sorafenib], in the assay with ACE2, the “ACE2 down modulation in resistant tumors vs control untreated tumors” value came to 2.4 fold.
